Patent USRE48267E1, “Variants of C-type natriuretic peptide” (priority 2009, dated 2020)
Where a SMILES comes first, the peptide text is derived from it. Bridges are numbered along the chain shown (N, C = ends). The star is where a group is joined. MeO(CH2CH2O)23CH2CH2CO = COCCOCCOCCOCCOCCOCCOCCOCCOCCOCCOCCOCCOCCOCCOCCOCCOCCOCCOCCOCCOCCOCCOCCOCCC(=O)*

System: FGFR3^ach mouse femurs and tibias
Experiment: mouse organ culture model of endochondral bone growth, FGFR3^ach bones
Procedure: To determine the efficacy of CNP variants in stimulating longitudinal bone growth, CNP variants were tested in a mouse organ culture model of endochondral bone growth in wild-type mice and transgenic mice having a G380R mutation in the human FGFR-3 gene (FGFR3^wt/Ach heterozygote) which represent a mouse model of mild achondroplasia. In brief, the pharmacological activity of wild-type CNP22 and CNP variants was compared in an organ culture model of embryonic or neonatal mouse tibiae, isolated from wild-type and FGFR3^wt/Ach littermates. Overall bone growth and histological changes within the growth plate were assessed. Conditioned culture medium is also assessed for biomarkers of intracellular signaling (cGMP), cartilage metabolism (type II collagen, other collagens, aggrecan chondroitin sulfate), bone metabolism (bone alkaline phosphatase, osteocalcin, type I collagen [C-telopeptide, N-telopeptide]), and inflammation (interleukin-1, interleukin 6, interleukin-11).
The efficacy of wtCNP22, CNP37 and PEO24-[…]22(K4R) (SEQ ID NO: 36) in stimulating longitudinal femoral growth was evaluated in the mouse organ culture model. For these experiments femora were isolated from 2-3 day old wild-type mice and cultured in alphaMEM supplemented with 0.2% BSA, 0.5 mM L-glutamine, 40 units penicillin/mL and 40 ug streptomycin/mL, for 8 days in the presence of vehicle, CNP22 or CNP variants. The treatment commenced at day 0 and was repeated every two days thereafter, as the medium was changed. Bones were measured prior to treatment and every two days thereafter, using a dissection microscope fitted with a 1 cm eye-piece reticule. Conditioned medium was used for biomarker analysis. At day 8 bones were fixed in 4% paraformaldehyde for 24 hr, decalcified in 5% formic acid for 24 hrs, dehydrated and embedded in paraffin. Bones were sectioned at 5 um (microns), which were then deparaffinized, rehydrated, and stained with Alcian Blue for 30 min (pH 2.5; MasterTech). Alcian Blue stains cartilage blue. Stained sections were visualized and photographed by brightfield microscopy. The thickness of the hypertrophic region of the growth plate cartilage was determined by image analysis.
Furthermore, ex vivo distribution of CNP37 in the growth plate of FGFR3^ach mouse tibia was evaluated. Bone samples were prepared as described above. Paraffin sections were cut and heat fixed for 1 hour at 60° C. Antigen retrieval with 1% hyaluronidase at 37° C. (30 minutes) was followed by a 1 hour serum block (10% Normal Goat Serum). […]
In addition to the distribution of CNP variants in the bone growth plate, the ex vivo effects of CNP37, CNP22 and vehicle on cells in the FGFR3^ach and wild-type growth plate, e.g., hypertrophic cell size and cellularity of proliferating zone, were also evaluated. […]

Compound: CC[C@H](C)[C@@H]1NC(=O)[C@H](CCCNC(=N)N)NC(=O)[C@H](CC(=O)O)NC(=O)[C@H](CC(C)C)NC(=O)[C@H](CCCCN)NC(=O)[C@H](CC(C)C)NC(=O)CNC(=O)[C@H](Cc2ccccc2)NC(=O)[C@@H](NC(=O)CNC(=O)[C@H](CCCNC(=N)N)NC(=O)[C@H](CO)NC(=O)[C@H](CC(C)C)NC(=O)CNC(=O)[C@H](CCCNC(=N)N)NC(=O)[C@H](CCCNC(=N)N)NC(=O)[C@H](CC(N)=O)NC(=O)[C@H](C)NC(=O)CNC(=O)CCOCCOCCOCCOCCOCCOCCOCCOCCOCCOCCOCCOCCOCCOCCOCCOCCOCCOCCOCCOCCOCCOCCOCCOC)CSSC[C@@H](C(=O)O)NC(=O)CNC(=O)[C@H](CC(C)C)NC(=O)CNC(=O)[C@H](CO)NC(=O)[C@H](CCSC)NC(=O)[C@H](CO)NC(=O)CNC1=O [PEO24-GANRR-CNP22(K4R)] ({MeO(CH2CH2O)23CH2CH2CO}-GANRRGLSRGCFGLKLDRIGSMSGLGC-OH; disulfide 11-27)
- levels of cleaved collagen type II in conditioned media (FGFR3^ach mouse femurs): significantly increased (p<0.05)
- cGMP levels in conditioned media (ex-planted FGFR3^ach mouse femurs and tibias, day 8): large increase (p<0.01)
- longitudinal growth of FGFR3^ach mouse femur ex vivo (treated every two days): increased the longitudinal growth of FGFR3^ach mouse femur compared to vehicle
- longitudinal growth of FGFR3^ach mouse tibia ex vivo (treated every two days): increased the longitudinal growth of the tibia compared to vehicle or CNP22
